Data taken from ChEMBL document CHEMBL1201862, “PubChem BioAssay data set” (2004).
Activity calls are given as the source filed them.

Assays:
[1] = biological target: T1, Short transient receptor potential channel 4 (Mus musculus, UniProt Q9QUQ5); test: mouse TRPC4 channel activators, dose response, cell-based, HEK293 TRPC4/mu-opioid, Fluo-4 calcium (AID 434937); format: functional
T1 sequence (Q9QUQ5 whole entry): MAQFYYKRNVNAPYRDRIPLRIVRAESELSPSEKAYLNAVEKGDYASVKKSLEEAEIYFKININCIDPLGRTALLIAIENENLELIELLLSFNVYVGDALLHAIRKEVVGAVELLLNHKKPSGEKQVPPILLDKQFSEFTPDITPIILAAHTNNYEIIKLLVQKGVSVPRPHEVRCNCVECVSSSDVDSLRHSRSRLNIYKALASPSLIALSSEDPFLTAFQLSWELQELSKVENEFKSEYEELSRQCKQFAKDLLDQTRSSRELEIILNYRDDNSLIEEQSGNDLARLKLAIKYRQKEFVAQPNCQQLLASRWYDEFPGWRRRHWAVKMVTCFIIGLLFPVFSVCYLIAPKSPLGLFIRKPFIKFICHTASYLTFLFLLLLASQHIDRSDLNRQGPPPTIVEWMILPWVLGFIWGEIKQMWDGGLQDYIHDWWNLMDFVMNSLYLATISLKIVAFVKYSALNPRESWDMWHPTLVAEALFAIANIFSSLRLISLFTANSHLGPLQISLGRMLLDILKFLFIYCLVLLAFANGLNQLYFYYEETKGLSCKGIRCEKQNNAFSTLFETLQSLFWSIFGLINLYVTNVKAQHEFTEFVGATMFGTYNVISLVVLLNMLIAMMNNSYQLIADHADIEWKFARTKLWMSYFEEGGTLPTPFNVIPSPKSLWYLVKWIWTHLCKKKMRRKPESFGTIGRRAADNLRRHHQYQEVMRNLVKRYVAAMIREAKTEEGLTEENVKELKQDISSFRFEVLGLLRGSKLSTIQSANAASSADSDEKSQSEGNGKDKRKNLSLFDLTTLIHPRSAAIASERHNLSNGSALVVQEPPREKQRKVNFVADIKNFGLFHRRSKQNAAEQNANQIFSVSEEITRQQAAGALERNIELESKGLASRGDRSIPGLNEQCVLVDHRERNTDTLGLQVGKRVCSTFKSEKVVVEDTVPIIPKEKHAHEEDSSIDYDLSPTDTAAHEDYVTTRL

[2] = HEK293T cytotoxicity, dose response, cytotoxicity control for miR-122 modulator project, cell-based, inhibitor set, cherry-pick, set 2 (AID 720697); format: functional
[3] = HEK293T cytotoxicity, dose response, cytotoxicity control for miR-122 modulator project, cell-based, activator set, cherry-pick (AID 720690); format: functional;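 note: HEK293T human cells scored for general mammalian cytotoxicity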
[4] = biological target: T2, Heat shock factor protein 1 (Mus musculus, UniProt P38532); test: HSF1 potentiators in luciferase reporter cells, confirmation, cell-based, NIH3T3, luminescence, dose retest (AID 435004); format: functional;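 note: stress induced by proteasome inhibitor MG132 added 30 min after compound; luciferase reporter driven by HSF1 response element in NIH3T3 cells; actives raise luminescence as potentiators of the MG132 stress response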
T2 sequence (P38532 whole entry): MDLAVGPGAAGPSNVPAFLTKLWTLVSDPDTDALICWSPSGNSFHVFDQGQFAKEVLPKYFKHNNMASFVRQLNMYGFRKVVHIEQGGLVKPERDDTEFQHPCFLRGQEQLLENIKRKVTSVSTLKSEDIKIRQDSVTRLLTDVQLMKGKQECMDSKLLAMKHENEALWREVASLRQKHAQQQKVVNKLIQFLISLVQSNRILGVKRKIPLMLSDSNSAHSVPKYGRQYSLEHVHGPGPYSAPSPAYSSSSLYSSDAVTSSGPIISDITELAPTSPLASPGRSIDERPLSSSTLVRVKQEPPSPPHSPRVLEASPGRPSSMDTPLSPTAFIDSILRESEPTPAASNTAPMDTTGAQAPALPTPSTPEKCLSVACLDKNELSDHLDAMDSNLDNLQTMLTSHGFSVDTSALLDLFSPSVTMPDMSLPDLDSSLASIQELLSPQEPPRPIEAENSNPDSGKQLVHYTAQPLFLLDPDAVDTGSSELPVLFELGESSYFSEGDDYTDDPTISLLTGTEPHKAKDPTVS

Beta-galactosidase = Beta-galactosidase (Escherichia coli, UniProt Q8VNN2); test: Dose response counterscreen for EBI2 assay utilizing the enzyme, b-galactosidase.; format: functional
[5] = biological target: Long-chain-fatty-acid--AMP ligase FadD28 (Mycobacterium tuberculosis, UniProt P9WQ59); test: Fluorescence polarization aasay to screen for inhibitors that compete for the binding of FadD28 to a bisubstrate Measured in Biochemical System Using Plate Reader - 2147-01_Inhibitor_Dose_CherryPick_Activity.; format: functional, Mycobacterium tuberculosis H37Rv
[6] = biological target: T2, Heat shock factor protein 1; test: inhibition of MG132-induced HSE-luciferase signal, confirmation, cell-based, NIH3T3, luminescence, dose retest (AID 2382); format: functional;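 note: NIH3T3 fibroblasts with HSF1-driven luciferase reporter stressed by proteasome inhibitor MG132; luminescence from HSF1-driven luciferase expression after 8 hours of MG132 stress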
[7] = A549 cell cytotoxicity, dose response, cytotoxicity control, plate reader, cherry-pick, antagonist series (AID 743412); format: functional, cell-based
[8] = HepG2 cell cytotoxicity, dose response, cytotoxicity control, plate reader, cherry-pick, antagonist series (AID 743416); format: functional, cell-based
[9] = LGR2 antagonists, dose response, cell-based, HEK293, CRE-luciferase reporter, cherry pick, set 2 (AID 743343); format: functional;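 note: transfected cells were stimulated with diluted bursicon conditioned medium after compound addition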
[10] = MC4R antagonists, dose response, counter-screen for LGR2 antagonist project, cell-based, plate reader, cherry pick (AID 743444); format: functional;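 note: transfected HEK 293 cells stimulated with alpha-MSH peptide; potency of inhibitors of the alpha-MSH evoked signal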
[11] = HEK293 cell cytotoxicity, dose response, cytotoxicity control, plate reader, cherry-picked samples (AID 743446); format: functional, cell-based
[12] = biological target: Tyrosine-protein phosphatase non-receptor type 11 (Homo sapiens, UniProt Q06124); test: SHP2 phosphatase inhibition, dose response, selectivity assay for STEP inhibitor project, biochemical (AID 602367); format: functional; conditions: read-out: IC50_Mean
[13] = biological target: Tyrosine-protein phosphatase non-receptor type 5 (Homo sapiens, UniProt P54829); test: STEP phosphatase inhibitors, confirmation, biochemical, fluorescence intensity, uHTS hits (AID 602372); format: functional; conditions: read-out: IC50_Mean
[14] = biological target: Dual specificity protein phosphatase 3 (Homo sapiens, UniProt P51452); test: VHR phosphatase inhibition, dose response, selectivity assay for STEP inhibitor project, biochemical (AID 602374); format: functional; conditions: read-out: IC50_Mean
[15] = biological target: T3, Tyrosine-protein phosphatase non-receptor type 22 (Homo sapiens, UniProt Q9Y2R2); test: PTPN22 phosphatase inhibition, dose response, selectivity assay for STEP inhibitor project, biochemical (AID 624241); format: functional
T3 sequence (Q9Y2R2 whole entry): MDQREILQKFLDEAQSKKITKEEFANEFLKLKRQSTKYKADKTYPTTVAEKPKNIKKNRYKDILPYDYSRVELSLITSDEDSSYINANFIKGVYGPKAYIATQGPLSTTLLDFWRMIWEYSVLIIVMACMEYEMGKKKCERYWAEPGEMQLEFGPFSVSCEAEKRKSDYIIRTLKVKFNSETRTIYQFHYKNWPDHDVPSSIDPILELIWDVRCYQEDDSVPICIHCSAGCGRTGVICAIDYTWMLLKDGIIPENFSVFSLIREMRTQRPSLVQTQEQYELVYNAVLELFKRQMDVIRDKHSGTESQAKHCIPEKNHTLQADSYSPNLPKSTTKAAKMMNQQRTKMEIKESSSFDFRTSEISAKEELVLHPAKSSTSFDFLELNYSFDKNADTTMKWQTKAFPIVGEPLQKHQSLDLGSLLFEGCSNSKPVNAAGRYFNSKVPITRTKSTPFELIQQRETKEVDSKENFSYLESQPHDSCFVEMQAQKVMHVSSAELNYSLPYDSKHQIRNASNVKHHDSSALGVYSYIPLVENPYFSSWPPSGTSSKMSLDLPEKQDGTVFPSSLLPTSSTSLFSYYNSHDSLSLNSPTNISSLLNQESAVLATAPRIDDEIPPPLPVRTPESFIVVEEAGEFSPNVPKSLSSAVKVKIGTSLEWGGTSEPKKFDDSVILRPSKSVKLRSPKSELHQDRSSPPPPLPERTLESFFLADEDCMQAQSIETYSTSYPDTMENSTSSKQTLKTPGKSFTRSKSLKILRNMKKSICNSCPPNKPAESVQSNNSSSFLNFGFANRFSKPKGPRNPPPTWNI

[16] = human group III sPLA2 inhibitors, dose response, biochemical, QFRET, IC50 (AID 743457);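 note: green fluorescence rise as the enzyme cleaves BODIPY PC-A2 in liposomes; potency for inhibition of the enzyme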
[17] = biological target: T4, Carboxy-terminal domain RNA polymerase II polypeptide A small phosphatase 1 (Homo sapiens, UniProt Q9GZU7); test: inhibitors of CTDSP1, concentration-response testing, biochemical assay, absorbance-based, actives from ultra-high-throughput screening (AID 540297); format: functional
T4 sequence (Q9GZU7 whole entry): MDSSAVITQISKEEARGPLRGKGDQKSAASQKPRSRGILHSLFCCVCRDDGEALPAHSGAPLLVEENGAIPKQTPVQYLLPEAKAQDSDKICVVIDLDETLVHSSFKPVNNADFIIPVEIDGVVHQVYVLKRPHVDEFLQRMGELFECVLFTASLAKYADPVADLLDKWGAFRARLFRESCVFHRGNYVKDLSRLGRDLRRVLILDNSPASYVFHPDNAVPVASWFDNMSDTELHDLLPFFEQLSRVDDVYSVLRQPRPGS

[18] = biological target: T5, Small ubiquitin-related modifier 1 (Homo sapiens, UniProt P63165); test: inhibitors of SUMO1 peptide binding, dose response, biochemical, fluorescence polarization, uHTS hits (AID 624382); format: functional; conditions: read-out: IC50_Mean
[19] = biological target: T6, Low molecular weight phosphotyrosine protein phosphatase (Homo sapiens, UniProt P24666); format: functional; conditions: read-out: IC50_Mean
T6 sequence (P24666 whole entry): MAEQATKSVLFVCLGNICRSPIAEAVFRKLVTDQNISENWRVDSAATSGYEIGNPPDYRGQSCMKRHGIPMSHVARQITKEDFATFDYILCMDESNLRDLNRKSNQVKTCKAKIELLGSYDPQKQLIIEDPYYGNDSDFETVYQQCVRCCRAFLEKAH

[20] = biological target: T5, Small ubiquitin-related modifier 1; test: inhibitors of SUMO1 partner interactions, dose response, biochemical, FRET (AID 624383); format: functional; conditions: read-out: IC50_Mean
[21] = biological target: T6, Low molecular weight phosphotyrosine protein phosphatase; format: functional; conditions: read-out: IC50_Mean; remark: listed apart in the source
[22] = Luminescence Cell-Based Dose Retest to Confirm Inhibitors of Cancer Stem Cells. [Related pubchem assays (depositor defined):AID2717, AID2721]; format: functional; conditions: Homo sapiens
HEK293 = test: inhibitors of LMP1-driven NF-kB reporter, dose response, cell-based, HEK293, luciferase, cherry-pick (AID 588343); format: functional; conditions: Homo sapiens
INS1 = test: beta cell apoptosis inhibitors, cytokine rescue, dose response, luminescence, retest (AID 449756); format: functional, cell-based; conditions: Rattus norvegicus;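 note: cell death triggered by IL-1 beta plus TNF-alpha plus IFN-gamma mixture; protective hits raise ATP signal compared with cytokine alone wells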
Paired box protein Pax-8 = Paired box protein Pax-8 (Homo sapiens, UniProt Q06710); test: inhibitors of PAX8-driven TPO luciferase reporter, dose response, RMG-I cells, cherry-pick (AID 687027); format: functional, cell-based;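 note: luciferase reporter driven by Pax8 target thyroperoxidase promoter measured by SteadyGlo luminescence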
[23] = IGROV1 ovarian cancer cell cytotoxicity, dose response, PAX8 inhibitor project, plate reader, dry powder samples (AID 743043); format: functional, cell-based; conditions: IGROV-1
[24] = P. falciparum Dd2 growth inhibitors, dose response, SYBR Green, cherry-picked samples (AID 1159567); format: functional, cell-based
[25] = HepG2 cell cytotoxicity, dose response, cytotoxicity control, cherry-picked samples (AID 1159577); format: functional, cell-based
[26] = NIH/3T3 fibroblast cytotoxicity, dose response, cytotoxicity control, cell-based, plate reader, dry powder, set 2 (AID 652280); format: functional; conditions: NIH3T3
[27] = T. cruzi growth inhibition in host cells, dose response, cell-based, plate reader, dry powder, set 2 (AID 652275); format: functional

T5 sequence (P63165 whole entry): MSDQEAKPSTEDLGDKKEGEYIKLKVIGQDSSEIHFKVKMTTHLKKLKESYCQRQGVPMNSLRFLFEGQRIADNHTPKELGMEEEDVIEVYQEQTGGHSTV
Tyrosine-protein phosphatase non-receptor type 11, sequence (Q06124 whole entry): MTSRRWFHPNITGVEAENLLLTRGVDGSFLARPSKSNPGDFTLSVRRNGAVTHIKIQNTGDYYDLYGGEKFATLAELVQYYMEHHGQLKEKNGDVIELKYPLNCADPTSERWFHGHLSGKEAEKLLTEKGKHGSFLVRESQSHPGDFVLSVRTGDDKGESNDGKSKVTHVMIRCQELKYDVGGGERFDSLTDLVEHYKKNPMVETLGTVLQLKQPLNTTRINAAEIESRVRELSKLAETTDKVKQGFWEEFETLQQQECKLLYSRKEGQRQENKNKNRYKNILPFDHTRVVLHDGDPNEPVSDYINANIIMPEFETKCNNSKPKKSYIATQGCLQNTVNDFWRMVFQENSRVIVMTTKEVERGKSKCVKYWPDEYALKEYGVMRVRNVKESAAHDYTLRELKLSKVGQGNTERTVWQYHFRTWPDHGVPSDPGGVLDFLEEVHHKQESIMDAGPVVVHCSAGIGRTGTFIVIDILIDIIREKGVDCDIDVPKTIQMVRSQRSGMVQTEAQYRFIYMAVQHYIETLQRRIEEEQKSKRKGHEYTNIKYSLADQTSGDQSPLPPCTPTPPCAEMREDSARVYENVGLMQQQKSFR
Dual specificity protein phosphatase 3, sequence (P51452 whole entry): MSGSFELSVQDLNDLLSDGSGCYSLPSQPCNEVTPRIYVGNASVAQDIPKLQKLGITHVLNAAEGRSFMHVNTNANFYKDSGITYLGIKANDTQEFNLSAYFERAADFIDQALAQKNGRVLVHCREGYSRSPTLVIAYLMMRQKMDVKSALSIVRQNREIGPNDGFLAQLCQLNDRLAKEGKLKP
Tyrosine-protein phosphatase non-receptor type 5, sequence (P54829 whole entry): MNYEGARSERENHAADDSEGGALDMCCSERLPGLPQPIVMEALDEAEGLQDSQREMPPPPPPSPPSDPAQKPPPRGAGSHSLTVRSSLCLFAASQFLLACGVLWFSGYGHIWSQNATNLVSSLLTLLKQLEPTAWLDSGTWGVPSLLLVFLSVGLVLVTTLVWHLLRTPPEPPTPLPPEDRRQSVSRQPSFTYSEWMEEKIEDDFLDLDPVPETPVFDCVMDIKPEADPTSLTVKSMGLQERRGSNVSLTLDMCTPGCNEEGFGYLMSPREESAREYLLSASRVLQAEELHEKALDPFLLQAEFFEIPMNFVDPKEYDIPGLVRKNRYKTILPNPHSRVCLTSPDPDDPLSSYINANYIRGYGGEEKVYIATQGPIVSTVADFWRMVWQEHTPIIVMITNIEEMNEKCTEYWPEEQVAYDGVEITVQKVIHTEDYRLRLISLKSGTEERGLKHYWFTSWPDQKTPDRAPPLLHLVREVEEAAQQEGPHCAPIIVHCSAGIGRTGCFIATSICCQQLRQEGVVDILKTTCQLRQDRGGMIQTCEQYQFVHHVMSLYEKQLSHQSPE
Paired box protein Pax-8, sequence (Q06710 whole entry): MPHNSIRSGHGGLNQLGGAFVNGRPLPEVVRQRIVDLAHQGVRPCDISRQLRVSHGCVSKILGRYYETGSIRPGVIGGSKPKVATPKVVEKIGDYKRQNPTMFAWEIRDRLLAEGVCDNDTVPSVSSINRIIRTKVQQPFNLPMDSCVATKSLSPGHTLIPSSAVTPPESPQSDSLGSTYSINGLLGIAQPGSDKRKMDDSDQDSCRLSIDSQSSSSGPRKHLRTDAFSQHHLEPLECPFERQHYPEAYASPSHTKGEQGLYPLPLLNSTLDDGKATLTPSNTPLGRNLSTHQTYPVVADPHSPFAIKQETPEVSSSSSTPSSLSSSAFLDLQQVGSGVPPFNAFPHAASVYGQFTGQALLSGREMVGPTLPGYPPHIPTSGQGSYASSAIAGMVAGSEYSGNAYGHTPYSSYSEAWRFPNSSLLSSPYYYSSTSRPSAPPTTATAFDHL
Long-chain-fatty-acid--AMP ligase FadD28, sequence (P9WQ59 whole entry): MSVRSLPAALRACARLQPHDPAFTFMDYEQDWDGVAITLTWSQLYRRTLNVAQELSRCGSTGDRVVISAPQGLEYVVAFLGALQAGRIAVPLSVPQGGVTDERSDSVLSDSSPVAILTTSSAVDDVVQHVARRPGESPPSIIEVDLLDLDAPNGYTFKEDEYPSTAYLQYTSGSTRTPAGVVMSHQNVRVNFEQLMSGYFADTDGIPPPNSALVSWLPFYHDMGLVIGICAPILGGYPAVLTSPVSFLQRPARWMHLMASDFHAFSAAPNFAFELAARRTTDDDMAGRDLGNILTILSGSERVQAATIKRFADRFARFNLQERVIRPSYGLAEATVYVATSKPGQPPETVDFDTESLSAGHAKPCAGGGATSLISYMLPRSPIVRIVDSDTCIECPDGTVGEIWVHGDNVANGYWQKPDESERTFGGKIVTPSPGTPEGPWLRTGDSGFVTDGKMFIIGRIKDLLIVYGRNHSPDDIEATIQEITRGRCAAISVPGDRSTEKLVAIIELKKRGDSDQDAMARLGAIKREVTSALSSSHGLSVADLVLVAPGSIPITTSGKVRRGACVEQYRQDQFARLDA
Beta-galactosidase, sequence (Q8VNN2 whole entry): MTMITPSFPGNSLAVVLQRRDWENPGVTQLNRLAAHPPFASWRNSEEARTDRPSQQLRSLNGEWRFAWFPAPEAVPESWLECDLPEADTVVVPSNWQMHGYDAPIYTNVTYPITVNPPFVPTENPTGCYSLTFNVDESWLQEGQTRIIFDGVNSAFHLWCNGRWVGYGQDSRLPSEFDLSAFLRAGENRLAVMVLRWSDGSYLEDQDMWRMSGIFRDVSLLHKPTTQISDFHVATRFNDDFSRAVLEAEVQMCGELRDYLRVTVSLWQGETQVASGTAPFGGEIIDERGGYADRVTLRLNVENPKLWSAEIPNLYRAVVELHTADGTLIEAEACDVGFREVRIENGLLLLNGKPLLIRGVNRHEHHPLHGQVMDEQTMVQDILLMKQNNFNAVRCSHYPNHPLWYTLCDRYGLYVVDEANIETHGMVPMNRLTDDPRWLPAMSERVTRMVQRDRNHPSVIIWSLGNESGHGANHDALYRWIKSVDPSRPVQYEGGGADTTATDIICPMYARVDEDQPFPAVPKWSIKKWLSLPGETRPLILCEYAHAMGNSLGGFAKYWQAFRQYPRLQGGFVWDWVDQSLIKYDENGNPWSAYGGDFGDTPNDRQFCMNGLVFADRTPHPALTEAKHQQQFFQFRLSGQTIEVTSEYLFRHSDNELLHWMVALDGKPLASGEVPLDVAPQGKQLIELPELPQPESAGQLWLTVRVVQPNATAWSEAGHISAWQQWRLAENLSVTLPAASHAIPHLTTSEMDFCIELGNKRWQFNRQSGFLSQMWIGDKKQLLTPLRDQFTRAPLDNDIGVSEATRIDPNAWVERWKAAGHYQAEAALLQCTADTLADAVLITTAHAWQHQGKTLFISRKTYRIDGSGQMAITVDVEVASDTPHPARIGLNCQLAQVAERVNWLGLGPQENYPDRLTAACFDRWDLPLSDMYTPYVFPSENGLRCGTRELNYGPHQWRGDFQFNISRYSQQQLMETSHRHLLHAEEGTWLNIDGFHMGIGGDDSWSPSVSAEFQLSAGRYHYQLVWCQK

Structure (SMILES): FC(F)(F)c1cnc(N2CCCN(C(S)=Nc3ccccc3)CC2)c(Cl)c1
- EC50 [1]: 0.421 µM (active)
- AC50 [2]: 3.78 µM (active)
- AC50 [3]: 26.9 µM (active)

Structure (SMILES): CCn1cc(C(=O)NN)c(=O)c2cc(F)c(NC3CCCCC3)cc21
- EC50 [4]: > 260 µM (inactive)
- IC50 (Beta-galactosidase): > 80 µM (inactive)

Structure (SMILES): CCn1c(C)cc(/C=C2\NC(=O)N(CC(=O)Nc3cccc(C)c3)C2=O)c1C
- AC50 [5]: 77.2 µM (active)

Structure (SMILES): O=C(O)c1ccc2nc(-c3ccccc3)sc2c1
- EC50 [6]: 5.85 µM (active)
- AC50 [7]: > 52 µM (inactive)
- AC50 [8]: > 52 µM (inactive)
- AC50 [9]: 3.7 µM (active)
- AC50 [10]: 3.35 µM (active)
- AC50 [11]: > 52 µM (inactive)

Structure (SMILES): COc1ccc(Cl)cc1N=C(S)N(CCCN1CCOCC1)Cc1cn(C)c2ccccc12
- IC50 [12]: 2.07 µM (active)
- IC50 [13]: 13.9 µM (active)
- IC50 [14]: 0.754 µM (active)
- IC50 [15]: 38.5 µM (inactive)

Structure (SMILES): O=C(NN=C(S)Nc1ccc(F)cc1)[C@H]1C[C@@H]1c1ccccc1
- IC50 [16]: > 122 µM (inactive)

Structure (SMILES): Cc1cc(C(=O)N/N=C/c2ccc(-c3ccc([N+](=O)[O-])cc3Cl)o2)[nH]n1
- IC50 [17]: 7.05 µM (active)
- IC50 [12]: 3.42 µM (active)
- IC50 [13]: 6.83 µM (active)
- IC50 [14]: 1.36 µM (active)
- IC50 [18]: > 66.6 µM (inactive)
- IC50 [19]: > 80 µM (inactive)
- IC50 [20]: 13.8 µM (active)
- IC50 [15]: > 100 µM (inactive)
- IC50 [21]: 19 µM (active)

Structure (SMILES): Cc1cc(C)nc(SCc2ccc(C(=O)N/N=C/c3cccc(O)c3O)cc2)n1
- AC50 [22]: 3.83 µM (active)
- AC50 (HEK293): 9.36 µM (active)
- AC50 (INS1): 2.22 µM (active)
- IC50 [16]: > 122 µM (inactive)

Structure (SMILES): C[C@@H]1CN([C@@H](C)CO)C(=O)Cc2cc(NC(=O)Nc3ccccc3)ccc2O[C@H]1CN(C)Cc1ccc(Oc2ccccc2)cc1
- AC50 (Paired box protein Pax-8): 9.84 µM (active)
- AC50 [23]: 55.6 µM (active)
- AC50 [24]: 1.05 µM (active)
- AC50 [25]: 12.9 µM (active)

Structure (SMILES): CC(C)N1CC[C@@H](CN(C)Cc2ccc(Oc3ccccc3)cc2)Oc2c(NC(=O)c3ccncc3)cccc2C1=O
- AC50 [26]: 23.4 µM (active)
- AC50 [27]: 0.0195 µM (active)

Structure (SMILES): CC(C)N1C[C@@H](CN(C)Cc2ccc(Oc3ccccc3)cc2)Oc2c(NC(=O)c3ccncc3)cccc2C1=O
- AC50 [26]: 2.36 µM (active)
- AC50 [27]: 0.00223 µM (active)
